From patent publication US5500429A, “Calcium uptake inhibitors” (Merrell Pharmaceuticals Inc., priority 1993, dated 1996) come the findings set out here.

Like-named read-outs stand apart in the source and are kept apart here.

Assay [1] has as its system Sprague-Dawley rats, Arthus reaction. Kind of assay: Arthus Reaction in Rat Skin. The class given is in vivo. As for the experimental part: Anesthetized male Sprague-Dawley rats (Charles River) weighing 200-250 grams received 100 mg/Kg i.v. sterile bovine serum albumin (BSA) solution (5 mg/mL). immediately after injection, the animals received an intradermal injection of 100 ug of rabbit anit-BSA in saline. This produces an immune complex mediated inflammation (Arthus reaction) where immune complexes fix complement releasing factors that attract neutrophils. The neutrophils then are activated causing local tissue damage as manifested in a hemorrhagic spot. The extent of the reaction is reflected in the size of the spot as measured by image analysis techniques.

Assay [2] concerns Lewis rats, adjuvant-induced arthritis. As to the kind of experiment: Lewis Rat Adjuvant-Induced Arthritis Model. The class given is in vivo. The method, then: Female inbred Lewis rats (Charles River) weighing 150-200 grams were injected intradermally in the tail with either 0.1 mL of Mycobacterium butyricum (Difco) in mineral oil (5 mg.mL) or with mineral oil alone. Starting on the day of innoculation and for 32 days, paw edema was determined for right and left hind limbs using the mercury displacemnt method. From day 1 some animals were treated with 30 mg/Kg p.o. MDL 29,355 once daily.

The subject of assay [3] is Sprague Dawley rats, carrageenin-induced paw edema. As to the kind of experiment: Carrageenin Induced Rat Paw Edema. The class given is in vivo. The note with it: i.p, one hour prior to carrageenin; read 3 hours after. As for the experimental part: Charles River male Sprague Dawley rats weighing 90 to 100 grams were used. Inflammation of the left hind paw was induced by a 1% carrageenin solution (0.05 cc), injected into the plantar surface of the paw. The contralateral paw was injected with an equal volume of saline. Drugs were administered orally or i.p. (1 cc/100 grams) one hour prior to paw injection. Three hours following the carrageenin injection the difference in volume of the control and inflamed paw was measured. Each paw was immersed in a well of mercury and the volume of mercury displaced was recorded. Paws were uniformly dipped into the mercury up to the beginning of the hairline. A venous pressure transducer, coupled to an oscillographic recorder, was employed to measure the small volumes of mercury displaced. Each group measurement consists of the average of four rats, each with three separate measurements.
Background: Carrageenan injected into the paw causes an acute inflammation.

In assay [4] the test system is Rat PMNL. As to the kind of experiment: Myeloperoxidase (MPO) Release from rat PMNL. The format is cell-based. Particulars: for inhibition at 1 µM / inhibition at 3 µM / inhibition at 10 µM / inhibition at 30 µM / inhibition at 100 µM / inhibition at 300 µM: Rattus norvegicus, PMNL. As for the experimental part: Rat PMNL were obtained from exudates resulting from peritoneal injection of 6 mL of 8% sodium caseinate. Eighteen hours after injection rats were killed by carbon dioxide inhalation and the peritoneal cavity lavaged with Hank's balanced salt solution (HBSS). After concentration of the PMNL by centrifugation, contaminating erythrocytes were removed by hypotonic lysis. The PMNL were then washed twice by centrifugation (400×g for 10 minutes) and resuspended in HBSS. Cell viability was greater than 90% by Trypan Blue exclusion and greater than 90% of the cells were PMNL by Wright-Giemsa stain.
MPO release was determined using the MPO catalyzed oxidation of o-dianisidine. The experiments were carried out in 96-well microtiter plates (Webster and Henson, 1978). In each well, 50 microliter (μ1) aliquots of a PMNL suspension (2×10^7 cell/mL in HBSS) were incubated with 50 μof HBSS containing vehicle (0.3% DMSO) or inhibitor for 30 minutes at 37° C. The final DMSO concentration never exceeded 0.3% and was constant throughout each experiment. To activate the PMNL, 50 μl of one of the following were added for 30 minutes at 37° C.: N-formyl-Met-Leu-Phe (fMLP; 0.1 μM); phorbol myristate acetate (PMA, 200 ng/mL); or rat serum opsonized zymosan (OZ; 2.6 mg/mL, prepared by the method of Ward et al., 1983). The stimuli were added in 50 μl HBSS which also contained the compounds or vehicle, as appropriate, to avoid changing the inhibitor concentration. Cell activation was terminated by centrifugation of the plates at 600×g for 5 minutes at 22° C. Aliquots (100 μl) of supernatant were removed from each well and transferred to a 96-well flatbottomed microtiter plate for the MPO assay. To each aliquot of supernatant was added 100 μl of a freshly prepared solution containing 50 μl of 0.2M sodium phosphate buffer (pH 6.2), 25 μl of 3.9 mM O-dianisidine and 25 μl of 0.015M hydrogen peroxide. Blanks were obtained using the same solution without hydrogen peroxide. The plates were mixed and then incubated at room temperature in the dark for about 15 minutes. Absorbances of the samples were measured at 450 nm.
Rat PMNL were isolated in HBSS containing Ca^+2. As summarized in the figure below, fMLP stimulation of rat PMNL in the presence of cytochalasin B or with opsonized zymosan or with ionomycin results in the release of myeloperoxidase (fMLP/MPO, OZ/MPO, and ION/MPO; columns 2, 4, and 6 respectively).

The mark [5] stands for this setting: fMLP + cytochalasin B, read-out: fMLP/MPO inhibition.
The mark [6] stands for this setting: ionomycin, read-out: ION/MPO inhibition.
Setting [7] is: opsonized zymosan, read-out: OZ/MPO inhibition.
The mark [8] stands for this setting: fMLP + cytochalasin B, opsonized zymosan, ionomycin.

With `O=C(C=Cc1ccncc1)c1ccccc1` [MDL 29,355, 1-phenyl-3-(4-pyridinyl)-2-propene-1-one], the “hemorrhagic spot size reduction” value in assay [1] (i.p. 100 mg/Kg, 30 minutes before Arthus reaction) is recorded as 55.0%±16.8%. In addition, in assay [1] (intradermal 100ug with the antibody), the “hemorrhagic spot size reduction” value was 41.7% ±12.5%. The “paw swelling reduction, day 20” value in assay [2] (30 mg/Kg p.o. once daily from day 1, day 20) is 36.4% ±16.6%. Moreover, the “paw swelling inhibited, day 32” value in assay [2] (30 mg/Kg p.o. once daily from day 1, day 32, not significantly different from untreated controls) is reported as 30.9%±22.4%. For the same molecule, the “animals never displaying adjuvant arthritis” value in assay [2] (30 mg/Kg p.o. once daily, all control animals displayed arthritis) is on record as “one of the 3 treated animals never displayed adjuvant arthritis”. For the same molecule, the “% Inhibition of carrageenin-induced paw edema” value in assay [3] came to 51.4 ± 8.5%. In assay [4] (setting [5]), the inhibition at 1 µM was determined as 0.1%, the inhibition at 3 µM is 5%, the inhibition at 10 µM is 16.5% and the inhibition at 30 µM was 53.3%. In assay [4] (setting [5]), the inhibition at 100 µM came to 101% and the inhibition at 300 µM turned out to be 104%. Besides, in assay [4] (setting [6]), the inhibition at 1 µM is -4.5%, the inhibition at 3 µM is -1.7%, the inhibition at 10 µM came out at 14.8% and the inhibition at 30 µM is 24.4%. Moreover, in assay [4] (setting [6]), the inhibition at 100 µM was 89.1% and the inhibition at 300 µM was 99.6%. Also, in assay [4] (setting [7]), the inhibition at 1 µM is -1.7%, the inhibition at 3 µM worked out at 3.4%, the inhibition at 10 µM came to 3.6% and the inhibition at 30 µM worked out at 3.2%. Also, in assay [4] (setting [7]), the inhibition at 100 µM was found to be 7.1% and the inhibition at 300 µM is 42.4%. Moreover, the “inhibition of myeloperoxidase release” value in assay [4] (setting [8]) was “dose dependent inhibition of myeloperoxidase release”.

For `CN(C)c1ccc(C(=O)C=Cc2ccncc2)cc1` [MDL 101,240, 1-(4-dimethylaminophenyl)-3-(4-pyridinyl)-2-propene-1-one], in assay [4] (setting [5]), the inhibition at 1 µM was found to be 13.1%, the inhibition at 3 µM worked out at 11.7%, the inhibition at 10 µM came out at 31.2% and the inhibition at 30 µM worked out at 67.3%. For the same molecule, in assay [4] (setting [5]), the inhibition at 100 µM is 112%. Moreover, in assay [4] (setting [6]), the inhibition at 1 µM was -8%, the inhibition at 3 µM is -5%, the inhibition at 10 µM was -2% and the inhibition at 30 µM was 12%. Besides, the inhibition at 100 µM in assay [4] (setting [6]) worked out at 35.6%. In assay [4] (setting [7]), the inhibition at 1 µM came to 2.5%, the inhibition at 3 µM turned out to be 7.3%, the inhibition at 10 µM came to 28.1% and the inhibition at 30 µM was found to be 82.5%. In assay [4] (setting [7]), the inhibition at 100 µM was 142%. The “inhibition of myeloperoxidase release” value in assay [4] (setting [8]) is “dose dependent inhibition of myeloperoxidase release”.
